The results in this text go back to patent US11116757B2 (priority 2015, dated 2021).

SMILES strings stand for the structures. pIC50: −log10 of the molar value. Where only a bound is given, the exact number is not on record here.

DCN1-UBC12 interaction, sequence (Q96GG9 60-248 limits assumed): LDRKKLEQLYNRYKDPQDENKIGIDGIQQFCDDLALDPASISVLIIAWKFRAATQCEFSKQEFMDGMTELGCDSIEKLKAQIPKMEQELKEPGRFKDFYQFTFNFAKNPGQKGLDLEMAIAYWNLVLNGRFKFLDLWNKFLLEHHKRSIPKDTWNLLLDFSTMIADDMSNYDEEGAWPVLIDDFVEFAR

One test has as its target DCN1-UBC12 interaction (Homo sapiens (Human), UniProt Q96GG9). As to the kind of experiment: biochemical. Type of test: binding. As to conditions: Table 4, commercial compounds; read-out: TR-FRET IC50.
As for `O=C(Nc1cccc(F)c1)C1CCN(C(=O)c2cnn(-c3ccccc3)c2-n2cccc2)CC1` [C50], the pIC50 was under 4.17. Same read-out and setting: the same measure for `O=C(Nc1cccc(C(F)(F)F)c1)C1CCN(C(=O)c2ccco2)CC1` [C68]: under 4.12; for `COCCC(=O)N1CCC(C(=O)Nc2ccc(-c3cc4ccccc4[nH]3)cc2)CC1` [C45]: under 4.17; for `O=C(Nc1ccc(Cl)c(C(F)(F)F)c1)C1CCN(C(=O)c2ccccc2Cl)CC1` [C7]: under 4.34. `CCc1cccc(NC(=O)C2CCN(C(=O)c3cnn(-c4ccccc4)c3-n3cccc3)CC2)c1` [C69]: the pIC50 was under 4.09. Same read-out and setting: the same measure for `O=C(Nc1cccc(C(F)(F)F)c1)C1CCN(C(=O)c2ccc(F)cc2)CC1` [C2]: 5.05.

Staying with this test, now noted: Table 6, commercial compounds; read-out: TR-FRET IC50.
On to `CN(C)CC(C)(C)CNC(=O)c1cnn(-c2nccc(-c3cccs3)n2)c1C1CC1` [E37], for which the pIC50 was under 4.17. Consider `Cc1c(C(=O)N2CCN(C)CC2)cnn1-c1nccc(-c2cccs2)n1` [E49], for which the pIC50 is under 4.17. Still for that read-out and setting: the figure for `COCCN1CCN(C(=O)c2cnn(-c3nccc(-c4cc(C)sc4C)n3)c2COC)CC1` [E8] is 4.64; for `CC(C)N1CCN(C(=O)c2cnn(-c3nccc(-c4cccs4)n3)c2C2CC2)CC1` [E43] it is under 4.17.

The test is the same for the next values; noted with them: read-out: TR-FRET IC50.
Turning to `CCCC(C)N1CCC(N(Cc2ccccc2)C(=O)Nc2ccc(C)c(C)c2)CC1` (centres unmarked) [A31], the pIC50 is 6.74. Same read-out and setting: the figure for `C=CC(=O)NCc1ccccc1CN(C(=O)Nc1cccc(C(F)(F)F)c1)C1CCN(C(C)CCC)CC1` (centres unmarked) [drawing 846] is over 8.00; for `CCCC(C)N1CCC(N(Cc2ccccc2)C(=O)Nc2cc(Cl)cc(C(F)(F)F)c2)CC1` (centres unmarked) [A113] it is 5.63; for `Cc1nc(NC(=O)NC2CCN(Cc3ccccc3)CC2)nn1C` [B25] it is under 4.79.

`CC(C1CCC1)N1CCC(N(Cc2ccccc2)C(=O)Nc2cc(F)cc(C(F)(F)F)c2)CC1` (centres unmarked) [A118]: the pIC50 was 6.84. The same measure, in the same setting: the figure for `Cc1ccc(CN(C(=O)Nc2ccccc2Br)C2CCN(Cc3ccccc3)CC2)o1` [B91] is under 4.17. The same measure, in the same setting: the same measure for `O=C(Nc1ccc2c(c1)OCO2)NC1CCN(Cc2ccccc2)CC1` [B22]: under 3.99; for `O=C(Nc1ccc(C(=O)N2CCCC2)cc1)Nc1cccc(C(F)(F)F)c1` [B112]: under 4.13.

As to `C=CS(=O)(=O)Nc1cccc(CN(C(=O)Nc2cccc(C(F)(F)F)c2)C2CCN(C(C)CCC)CC2)c1` (centres unmarked) [A27], the pIC50 was 6.78. Still for that read-out and setting: the figure for `CCCC(C)N1CCC(N(Cc2ccccc2)C(=O)Nc2ccc(SC(F)(F)F)cc2)CC1` (centres unmarked) [A14] is 7.07; for `CCN1CCC(N(Cc2ccco2)C(=O)Nc2ccc(C)c(F)c2)CC1` [B11] it is 4.62. With `O=C(Nc1cc(F)cc(C(F)(F)F)c1)N(Cc1ccccc1)C1CCN(Cc2ccncc2)CC1` [A228], the negative logarithm of the IC50 (pIC50) was under 4.55.

For `O=C(Nc1ccc(CN2CCCC2)cc1)Nc1cccc(C(F)(F)F)c1` [B105], the pIC50 was under 4.15.

Take `CCCC(C)N1CCC(N(Cc2ccccc2)C(=O)Nc2ccc(C(=O)OC)cc2Cl)CC1` (centres unmarked) [A189]: the pIC50 was 4.42. Still for that read-out and setting: the same measure for `O=C(Nc1cc(F)cc(C(F)(F)F)c1)N(Cc1ccccc1)C1CCN(Cc2ncc[nH]2)CC1` [A225]: under 4.58; for `O=C(Nc1ccn(Cc2ccccn2)n1)NC1CCN(Cc2ccccc2)CC1` [B33]: under 4.26. Same read-out and setting: the figure for `CCCC(C)N1CCC(N(Cc2ccccc2)C(=O)Nc2cc(OC)ccc2Cl)CC1` (centres unmarked) [A288] is under 4.14; for `CCCCN(C(=O)Nc1ccc(F)c(C(F)(F)F)c1)C1CCN(C(C)CCC)CC1` (centres unmarked) [A87] it is 5.99. On the same count and under the same terms, the figure for `CCCC(C)N1CCC(N(Cc2ccccc2)C(=O)Nc2ccc(-c3cccc(C(=O)OC)c3)cc2)CC1` (centres unmarked) [A116] is 5.63. On to `CCCC(C)N1CCC(N(Cc2ccccc2)C(=O)Nc2c(OC)cccc2OC)CC1` (centres unmarked) [A299], for which the pIC50 is under 4.07. Still for that read-out and setting: the figure for `CCN1CCC(N(Cc2ccco2)C(=O)Nc2ccc(Br)c(C)c2)CC1` [B2] is 5.52.

Take `O=C(c1ccccc1F)N1CCC(c2nc3ccccc3s2)CC1` [D13]: the pIC50 is 4.34.
